In patent publication US7169407B1, “Carbonyl stress-decreasing agent” (Kiyoshi Kurokawa, priority 1999, dated 2007):

Key:
[1] = Carbonyl compound-trapping effect of biguanide agents in phosphate buffer (Example 1); details: 3 mM biguanide agent, 0.1 mM carbonyl compounds each, 0.1M phosphate buffer pH7.4, 37° C., over incubation period; HPLC
[2] = as above; details: 3 mM biguanide agent, 0.1 mM carbonyl compounds each, 0.1M phosphate buffer pH7.4, 37° C., over incubation period; HPLC; remark: listed apart in the source

Row | Structure (SMILES) | concentration of glyoxal [1] | concentration of methylglyoxal [2]
1 | CCCCNC(=N)NC(=N)N [buformin, butyl biguanide] | markedly decreased | markedly decreased
2 | N=C(N)NC(=N)NCCc1ccccc1 [phenformin, phenethyl biguanide] | markedly decreased | markedly decreased
